This passage reports EC50 results from ChEMBL document CHEMBL4028853, “Microbiota-Host Transgenomic Metabolism, Bioactive Molecules from the Inside” (J Med Chem, 2018).

Experiment [1] has as its target T1, Free fatty acid receptor 2 (Homo sapiens, UniProt O15552).
T1 sequence (O15552 whole entry): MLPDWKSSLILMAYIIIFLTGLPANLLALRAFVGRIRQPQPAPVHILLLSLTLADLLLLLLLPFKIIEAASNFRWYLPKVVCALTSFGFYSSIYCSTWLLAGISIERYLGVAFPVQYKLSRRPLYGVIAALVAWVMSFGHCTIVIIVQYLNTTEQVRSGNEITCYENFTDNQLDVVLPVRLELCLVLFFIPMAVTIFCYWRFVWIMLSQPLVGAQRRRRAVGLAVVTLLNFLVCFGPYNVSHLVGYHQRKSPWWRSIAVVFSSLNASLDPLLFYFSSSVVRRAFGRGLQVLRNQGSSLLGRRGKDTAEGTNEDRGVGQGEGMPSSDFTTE
The experiment is described as follows: Agonist activity at human GPCR43 transfected in HEK293 cells assessed as [35S]GTPgammaS binding by scintillation counting method.

Experiment [2] deals with T2, Free fatty acid receptor 3 (Homo sapiens, UniProt O14843).
T2 sequence (O14843 whole entry): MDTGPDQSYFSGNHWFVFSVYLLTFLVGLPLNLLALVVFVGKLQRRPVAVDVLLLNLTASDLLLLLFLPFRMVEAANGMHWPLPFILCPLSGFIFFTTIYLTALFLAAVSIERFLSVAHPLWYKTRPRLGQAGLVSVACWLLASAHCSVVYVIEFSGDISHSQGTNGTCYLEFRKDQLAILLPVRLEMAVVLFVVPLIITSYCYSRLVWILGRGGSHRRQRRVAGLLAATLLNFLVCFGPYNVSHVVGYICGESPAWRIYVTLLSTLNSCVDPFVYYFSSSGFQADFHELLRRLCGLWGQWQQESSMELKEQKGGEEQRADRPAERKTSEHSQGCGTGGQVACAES
The experiment is described as follows: Agonist activity at human GPCR41 transfected in HEK293 cells assessed as [35S]GTPgammaS binding by scintillation counting method. The experiment is classed as functional, cell-based. (In general: GTPγS is a poorly hydrolysed GTP analogue; its binding reports G protein activation.)

In general, EC50 refers to the concentration that produces a half-maximal response. Regarding `CC(=O)O` [ACETIC ACID], the EC50 in experiment [1] lay in the range of 250 to 500 µM; in experiment [2], 12 to 274 µM.

On to `CCCC(=O)O` [BUTYRIC ACID], for which the EC50 in experiment [2] fell in the range of 12 to 274 µM.

As for `CCC(=O)O` [PROPIONIC ACID], the concentration for a half-maximal effect (EC50) in experiment [2] is 12 to 274 µM.
